From paper PMC12856912, “Structure-Guided Semisynthesis of Blasticidin S–Amicetin Chimeras as Selective Ribosome Inhibitors” (Journal of the American Chemical Society, 2026)
Converted amounts (≈) assume the structure as drawn.

What was measured:
MRSA USA-300 = assay type: cell-based, Staphylococcus aureus; conditions: for bacteriostatic or bactericidal effect in time-kill assay: 5× MIC and 10× MIC
Method: MRSA USA-300 was grown overnight in cation- adjusted Muell er-Hinton broth (CAMHB), then subcultured into fresh CAMHB and incubated aerobi cally at 37°C until reaching the logarithmic phase, corresponding to an optical density (OD₆₀₀) of 0.2. The bacterial cultures were further diluted to adjust to a final concentration of 5 × 10⁵ CFU/mL in CAMHB. P3, P5, vancomycin and linezolid, were added at concentrations of 5× and 10× MIC. A DMSO-treated […]
culture serv ed as an untreated control. The cultures were aerobically maintai ned at 37°C in shaking incubator. At specifi c sampling times, aliquots were collected, resuspended in phosphate-buffered saline (PBS) and distributed to three replicates on tryptic soy agar (TSA). After a 24-hour incubation period at 37°C, the number of colony- forming units (CFUs) was evaluated.
F i g u re S 1. Time kill results against MRSA USA 300 at 5X and 10X MIC. Compound P3 ( 38) is shown as red squares, compound P5( 40) is shown as green tri angles. Vancomycin (inverted purple triangle) is used as a b act ericidal control and linezolid (orange diamond) as a bacteriostatic control with DMSO (blue circles ) as a neg ative control. […]

MRSA ATCC 43300 = assay: Antibacterial MIC assay, serial dilution; assay type: cell-based, Staphylococcus aureus; conditions: for Selectivity index (CC50/MIC) MRSA 43300: CC50 Vero cells / MIC; for MIC: Staphylococcus aureus, read-out: MIC MRSA ATCC 43300
Summary of the method: (§1)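 Overnight cultures were subcultured in CAMHB to OD600 ~0.5, then diluted to OD600 0.004 and added to serially diluted compound (final 128–1 μg/mL). After incubation at 37 °C for 16–18 h, or 24 h for VRE, growth was read at OD600 and MIC taken as >90% inhibition.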

S. aureus ATCC 6538P = assay: Antibacterial MIC assay, serial dilution; assay type: cell-based, Staphylococcus aureus; conditions: for Selectivity index (CC50/MIC) S. aureus 6538P: CC50 Vero cells / MIC; for MIC: Staphylococcus aureus, ATCC 6538P / ATCC 6539P, read-out: MIC S. aureus ATCC 6539P
Summary of the method: as §1

S. aureus ΔNorA = assay: Antibacterial MIC assay, serial dilution; assay type: cell-based, Staphylococcus aureus; conditions: for Selectivity index (CC50/MIC) S. aureus ΔNorA: CC50 Vero cells / MIC; for MIC: Staphylococcus aureus, read-out: MIC S. aureus ∆NorA
Summary of the method: as §1

[1] = test system: Methicillin resistant Staphylococcus epidermidis (MRSE) ATCC 35984 NRS101; assay: Antibacterial MIC assay, serial dilution; assay type: cell-based; conditions: for Selectivity index (CC50/MIC) MRSE 35984: CC50 Vero cells / MIC; for MIC: Staphylococcus epidermidis, read-out: MIC Methicillin resistant Staphylococcus epidermidis (MRSE) ATCC 35984 NRS101
[2] = test system: Methicillin resistant S. aureus (MRSA) USA300; assay: Antibacterial MIC assay, serial dilution; assay type: cell-based, Staphylococcus aureus; conditions: for Selectivity index (CC50/MIC) MRSA USA300: CC50 Vero cells / MIC; for MIC: Staphylococcus aureus, read-out: MIC Methicillin resistant S. aureus (MRSA) USA300
[3] = test system: Vancomycin resistant E. faecalis NR-31972 (VRE); assay: Antibacterial MIC assay, serial dilution; assay type: cell-based, Enterococcus faecalis; conditions: for Selectivity index (CC50/MIC) VRE NR-31972: CC50 Vero cells / MIC; for MIC: Enterococcus faecalis, VRE, 24 h, read-out: MIC Vancomycin resistant E. faecalis NR-31972 (VRE)
Summary of the method: as §1

[4] = test system: Acinetobacter baumannii ATCC 17978; assay: Antibacterial MIC assay, serial dilution; assay type: cell-based; conditions: ATCC17978, range from biological replicates
Summary of the method: as §1

[5] = test system: Enterococcus faecalis ATCC 29212; assay: Antibacterial MIC assay, serial dilution; assay type: cell-based; conditions: for Selectivity index (CC50/MIC) E. faecalis 29212: CC50 Vero cells / MIC; for MIC: Enterococcus faecalis, ATCC 29112 / ATCC 29212, 24 h, read-out: MIC E. faecalis ATCC 29112
[6] = test system: Klebsiella pneumoniae ATCC 29665; assay: Antibacterial MIC assay, serial dilution; assay type: cell-based; conditions: for MIC: Klebsiella pneumoniae, ATCC29665, range from biological replicates, read-out: MIC K. pneumoniae ATCC-29665
Summary of the method: as §1

Pseudomonas aeruginosa = assay: Antibacterial MIC assay, serial dilution; assay type: cell-based; conditions: for Selectivity index (CC50/MIC) P. aeruginosa: CC50 Vero cells / MIC; for MIC: Pseudomonas aeruginosa, range from biological replicates, read-out: MIC P. aeruginosa
Summary of the method: as §1

[7] = test system: Vancomycin resistant Enterococcus faecium NR-31909 (VRE); assay: Antibacterial MIC assay, serial dilution; assay type: cell-based; conditions: for MIC: Enterococcus faecium, VRE, 24 h, read-out: MIC Vancomycin resistant Enterococcus faecium NR-31909 (VRE)
Summary of the method: as §1

[8] = test system: Escherichia coli BAA-2452; assay: Antibacterial MIC assay, serial dilution; assay type: cell-based; conditions: BAA2452, read-out: MIC Escherichia coli BAA-2452
[9] = Cytotoxicity assay (MTS/PMS); assay type: cell-based; conditions: monkey, Vero cells (monkey kidney epithelial cells); 24 h treatment, MTS/PMS, average of three biological replicates; read-out: CC50 against Vero cells
Summary of the method: (§2)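 CC50 (µg/mL) was taken as the compound level that lowered vehicle-normalized viability to 50%, from MTS/PMS absorbance at 490 nm after 4 h with reagent. Monkey kidney Vero cells in DMEM/10% FBS received serial dilutions for 24 h at 37 °C, in three biological replicates.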

Vero cells = assay: Cytotoxicity assay (MTS/PMS); assay type: cell-based; conditions: Vero cells, chimera vs parent of its series
Summary of the method: as §2

bacteria = assay: Antibacterial assays, summary statements over the panel; assay type: cell-based; conditions: against most S. aureus strains
Method: Media and solutions were autoclaved or sterile filtered prior to use and mani pulations were carri ed out in a laminar flow hood. Antibacterial t esting was performed in polypropylene 96-well flat bottom plates. The minimal inhibitory concentration of blasticidin S (1) hydrochloride, methyl ester (3) trihydrochloride, P10 (2) tri-T FA , phenet hyl amide (4) tri -T FA , an d blastimidines M 19– 22, A, 29–32, P 37–40, and C 43–46 (salt forms as described in the te xt) were assessed against Staphylococcus aureus ΔNorA, S. aureus ATCC 6538P, methicillin-resistant S. aureus (MRSA) ATCC 43300, Enterococcus faecalis ATCC 29212, vancomycin- resistant Enterococcus, Klebsiella pneumoniae ATCC 29665, Pseudomonas aeruginosa,and Acinetobacter baumannii ATCC 17978 using serial dilutions. Doxycycline (Gold Bio) as a positive control and the vehicle as a negative control. Stock solutions of each compound were prepared at 2.56 mg/mL in 50% DMSO/water and serially diluted in 50% DMSO/water to create master plates. […]
Growth controls (wells with inoculated media but no vehicle or test compounds) were included to assess any potential toxicity from the vehicle. […] Inh ibition was determined by measuring the optical density at 600 nm (OD60 0) with a Cytation 3 pl ate read er (BioTek). […]

SMILES	Selectivity index (CC50/MIC) MRSA 43300 (MRSA ATCC 43300)	MIC (MRSA ATCC 43300)	Selectivity index (CC50/MIC) S. aureus 6538P (S. aureus ATCC 6538P)	MIC (S. aureus ATCC 6538P)	Selectivity index (CC50/MIC) S. aureus ΔNorA (S. aureus ΔNorA)	MIC (S. aureus ΔNorA)	Selectivity index (CC50/MIC) MRSE 35984 [1]	MIC [1]	Selectivity index (CC50/MIC) MRSA USA300 [2]	MIC [2]	Selectivity index (CC50/MIC) VRE NR-31972 [3]	MIC [3]	MIC [4]	Selectivity index (CC50/MIC) E. faecalis 29212 [5]	MIC [5]	MIC [6]	Selectivity index (CC50/MIC) P. aeruginosa (Pseudomonas aeruginosa)	MIC (Pseudomonas aeruginosa)	MIC [7]	MIC [8]	also measured
CC(=O)NC[C@H]1CN(c2ccc(N3CCOCC3)c(F)c2)C(=O)O1 [linezolid, reference compound]	–	–	–	–	–	–	–	–	–	–	–	–	–	–	–	–	–	–	–	–	bacteriostatic or bactericidal effect in time-kill assay (MRSA USA-300): bacteriostatic activity
CN[C@H](CC(C)C)C(=O)N[C@H]1C(=O)N[C@@H](CC(N)=O)C(=O)N[C@H]2C(=O)N[C@H]3C(=O)N[C@H](C(=O)N[C@H](C(=O)O)c4cc(O)cc(O)c4-c4cc3ccc4O)[C@H](O)c3ccc(c(Cl)c3)Oc3cc2cc(c3O[C@@H]2O[C@H](CO)[C@@H](O)[C@H](O)[C@H]2O[C@H]2C[C@](C)(N)[C@H](O)[C@H](C)O2)Oc2ccc(cc2Cl)[C@H]1O [vancomycin, reference compound]	–	–	–	–	–	–	–	–	–	–	–	–	–	–	–	–	–	–	–	–	bacteriostatic or bactericidal effect in time-kill assay (MRSA USA-300): bactericidal activity; time to bactericidal activity (MRSA USA-300; time-kill assay): ≤ 8 h
CC(=O)Nc1ccc(C(=O)Nc2ccn([C@H]3C=C[C@H](NC(=O)C[C@@H](N)CCN(C)C(=N)N)[C@@H](C(=O)O)O3)c(=O)n2)cc1 [Blastimidine C4]	<1.6	> 128 µg/mL	<1.6	> 128 µg/mL	<1.6	> 128 µg/mL	<1.6	> 128 µg/mL	<1.6	> 128 µg/mL	<1.6	> 128 µg/mL	> 128 µg/mL	<1.6	> 128 µg/mL	128 µg/mL (≈ 219 µM)	<1.6	> 128 µg/mL	> 128 µg/mL	> 128 µg/mL	CC50 at 24 h [9]: 203 µg/mL (≈ 348 µM); fold lower cytotoxicity relative to parent molecule (Vero cells): > 10 fold
CC(=O)Nc1ccc(C(=O)Nc2ccn([C@H]3C=C[C@H](NC(=O)C[C@@H](N)CCN(C)C(=N)N)[C@@H](C(=O)NCCc4ccccc4)O3)c(=O)n2)cc1 [Blastimidine P4]	>2.0	128 µg/mL (≈ 186 µM)	>8.0	32 µg/mL (≈ 46.6 µM)	>24	8 to 16 µg/mL (≈ 11.6 to 23.3 µM)	>16	16 µg/mL (≈ 23.3 µM)	>4.0	64 µg/mL (≈ 93.2 µM)	>8.0	32 µg/mL (≈ 46.6 µM)	> 128 µg/mL	>8.0	32 µg/mL (≈ 46.6 µM)	> 128 µg/mL	>2.0	128 µg/mL (≈ 186 µM)	> 128 µg/mL	> 128 µg/mL	CC50 at 24 h [9]: > 256 µg/mL
CNc1ccc(C(=O)Nc2ccn([C@H]3C=C[C@H](NC(=O)C[C@@H](N)CCN(C)C(=N)N)[C@@H](C(=O)OC)O3)c(=O)n2)cc1 [Blastimidine M3]	13	16 µg/mL (≈ 28.1 µM)	26	8 µg/mL (≈ 14 µM)	26	8 µg/mL (≈ 14 µM)	26	8 µg/mL (≈ 14 µM)	26	8 µg/mL (≈ 14 µM)	13	16 µg/mL (≈ 28.1 µM)	> 128 µg/mL	13	16 µg/mL (≈ 28.1 µM)	32 µg/mL (≈ 56.2 µM)	<1.6	> 128 µg/mL	64 µg/mL (≈ 112 µM)	32 µg/mL (≈ 56.2 µM)	Selectivity index (CC50/MIC) K. pneumoniae ([6]; CC50 Vero cells / MIC): 6.4; Selectivity index (CC50/MIC) VRE NR-31909 ([7]; CC50 Vero cells / MIC): 3.2; CC50 at 24 h [9]: 205 µg/mL (≈ 360 µM); Selectivity index (SI) (bacteria): > 25
